Data reported in PMC7658073 (Clinical Pharmacokinetics, 2020).

Legend:
[1] = serum albumin main binding component; ref data on file; cited from earlier work
UGT1A6 = molecular target: T1, UGT1A6 (Homo sapiens, UniProt P19224); experiment: Inhibitory potency towards UGT isoforms: UGT1A6; assay type: in vitro ADME
T1 sequence (P19224 27-532): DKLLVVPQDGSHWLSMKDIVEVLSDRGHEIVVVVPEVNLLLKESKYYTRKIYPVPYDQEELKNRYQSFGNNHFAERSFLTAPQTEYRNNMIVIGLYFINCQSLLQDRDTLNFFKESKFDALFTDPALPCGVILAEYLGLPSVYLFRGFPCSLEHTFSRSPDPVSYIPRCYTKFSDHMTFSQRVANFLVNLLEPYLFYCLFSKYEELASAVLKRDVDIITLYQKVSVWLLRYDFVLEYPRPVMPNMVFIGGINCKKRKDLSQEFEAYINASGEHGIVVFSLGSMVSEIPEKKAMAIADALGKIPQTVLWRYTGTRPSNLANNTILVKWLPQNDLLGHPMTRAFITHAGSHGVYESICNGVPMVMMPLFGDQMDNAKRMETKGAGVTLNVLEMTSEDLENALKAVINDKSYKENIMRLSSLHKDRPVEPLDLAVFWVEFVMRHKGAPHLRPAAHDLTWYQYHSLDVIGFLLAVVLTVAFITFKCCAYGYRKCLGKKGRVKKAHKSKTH

UGT1A4 = molecular target: T2, UGT1A4 (Homo sapiens, UniProt P22310); experiment: Inhibitory potency towards UGT isoforms: UGT1A4; assay type: in vitro ADME
T2 sequence (P22310 29-534): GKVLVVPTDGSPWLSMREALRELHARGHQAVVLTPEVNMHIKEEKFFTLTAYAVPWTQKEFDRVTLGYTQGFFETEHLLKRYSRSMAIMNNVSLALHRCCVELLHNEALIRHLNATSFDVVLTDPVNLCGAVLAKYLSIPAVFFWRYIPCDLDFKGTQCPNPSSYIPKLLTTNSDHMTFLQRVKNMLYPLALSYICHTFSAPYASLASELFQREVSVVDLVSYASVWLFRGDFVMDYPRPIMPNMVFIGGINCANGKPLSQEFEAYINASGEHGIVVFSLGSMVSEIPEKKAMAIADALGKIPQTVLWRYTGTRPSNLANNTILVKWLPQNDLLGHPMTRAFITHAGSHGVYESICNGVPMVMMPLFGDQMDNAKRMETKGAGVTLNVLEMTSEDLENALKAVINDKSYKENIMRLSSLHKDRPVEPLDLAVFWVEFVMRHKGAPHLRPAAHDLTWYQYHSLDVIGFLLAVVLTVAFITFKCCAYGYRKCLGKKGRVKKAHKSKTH

CYP3A4 = experiment: CYP induction in cultured human hepatocytes: CYP3A4; assay type: in vitro ADME; conditions: one of the three donors

For `COC(=O)Nc1c(N)nc(-c2nn(Cc3ccccc3F)c3ncc(F)cc23)nc1N` [Vericiguat], the Plasma protein binding [1] is given as “approximately 98%”, the IC50 (UGT1A6) is given as greater than 50 µM and the IC50 (UGT1A4) is given as greater than 50 µM. For the same compound, the “CYP3A4 mRNA induction relative to rifampicin [positive control] response” value (CYP3A4; highest tested concentration) was 4% and the “Increase in CYP3A4 messenger RNA” value (CYP3A4; highest tested concentration 10,000 μg/L (23.5 µM)) was 2.7 fold.
